Experimental data taken from ChEMBL document CHEMBL1158611, “Trichoderins, novel aminolipopeptides from a marine sponge-derived Trichoderma sp., are active against dormant mycobacteria” (2010).
≈ marks a conversion by molar mass, not a printed value. *1 amine or outer side, *2 acyl side, *3 side chain or, on linkers, in order; H or OH if unused. Where a SMILES comes first, the peptide text is derived from it. [ ]: non-standard residue; d: D form. The star is where a group is joined. X2 = CCC(=O)C[C@@H](O)C[C@@H](C)C[C@H](N[*:1])C(=O)[*:2]; X1 = CCC(=O)/C=C/C[C@@H](C)C[C@H](N[*:1])C(=O)[*:2]; Alaψ(CH2NMeCH2CH2OH) = C[C@@H](CN(C)CCO)N*; Decanoyl(2R-Me) = CCCCCCCC[C@@H](C)C(=O)*; Aib = CC(C)(N)C(=O)O

What was measured:
Format in all cases: functional
[1] = system: Mycolicibacterium smegmatis; assay: Antimycobacterial activity against Mycobacterium smegmatis under aerobic condition
[2] = system: Mycolicibacterium smegmatis; assay: Antimycobacterial activity against Mycobacterium smegmatis under dormancy-inducing hypoxic condition
[3] = system: Mycobacterium tuberculosis; assay: Antimycobacterial activity against Mycobacterium tuberculosis H37Rv under aerobic condition
[4] = system: Mycobacterium tuberculosis; assay: Antimycobacterial activity against Mycobacterium tuberculosis H37Rv under dormancy-inducing hypoxic condition

SMILES	MIC [1]	MIC [2]	MIC [3]	MIC [4]
CCCCCCCC[C@@H](C)C(=O)N1CCC[C@H]1C(=O)N[C@@H](C[C@H](C)C/C=C/C(=O)CC)C(=O)NC(C)(C)C(=O)NC(C)(C)C(=O)N[C@H](C(=O)N[C@H](C(=O)NC(C)(C)C(=O)NC(C)(C)C(=O)N[C@@H](C)CN(C)CCO)C(C)C)[C@@H](C)CC [TRICHODERIN A1] ({Decanoyl(2R-Me)}-P[X1][Aib][Aib]IV[Aib][Aib]-{Alaψ(CH2NMeCH2CH2OH)})	1.56 µg/mL (≈ 1.36 µM)	1.56 µg/mL (≈ 1.36 µM)	2 µg/mL (≈ 1.75 µM)	2 µg/mL (≈ 1.75 µM)
CCCCCCCC[C@@H](C)C(=O)N1CCC[C@H]1C(=O)N[C@@H](C[C@H](C)C[C@H](O)CC(=O)CC)C(=O)NC(C)(C)C(=O)NC(C)(C)C(=O)N[C@H](C(=O)N[C@H](C(=O)NC(C)(C)C(=O)NC(C)(C)C(=O)N[C@@H](C)CN(C)CCO)C(C)C)[C@@H](C)CC [TRICHODERIN A] ({Decanoyl(2R-Me)}-P[X2][Aib][Aib]IV[Aib][Aib]-{Alaψ(CH2NMeCH2CH2OH)})	0.1 µg/mL (≈ 0.0859 µM)	0.1 µg/mL (≈ 0.0859 µM)	0.12 µg/mL (≈ 0.103 µM)	0.12 µg/mL (≈ 0.103 µM)
NNC(=O)c1ccncc1 [ISONIAZID]	2.5 µg/mL (≈ 18.2 µM)	25 µg/mL (≈ 182 µM)	0.05 µg/mL (≈ 0.365 µM)	> 100 µg/mL
CCCCCCCC[C@@H](C)C(=O)N1CCC[C@H]1C(=O)N[C@@H](C[C@H](C)C[C@H](O)CC(=O)CC)C(=O)NC(C)(C)C(=O)NC(C)(C)C(=O)N[C@H](C(=O)N[C@H](C(=O)NC(C)(C)C(=O)NC(C)(C)C(=O)N[C@@H](C)CN(C)CCO)C(C)C)C(C)C [TRICHODERIN B] ({Decanoyl(2R-Me)}-P[X2][Aib][Aib]VV[Aib][Aib]-{Alaψ(CH2NMeCH2CH2OH)})	0.63 µg/mL (≈ 0.548 µM)	0.63 µg/mL (≈ 0.548 µM)	0.13 µg/mL (≈ 0.113 µM)	0.13 µg/mL (≈ 0.113 µM)
